This note sets out measurements from patent US9284307B2, “Macrocyclic serine protease inhibitors” (Idenix Pharmaceuticals LLC, priority 2009, dated 2016).

pEC50: −log10 of the molar value.

Series [1] addresses T1, CYP2B6 (Homo sapiens, UniProt P20813).
T1 construct: purchased BD Bioscience 459220
Put plainly: In vitro CYP450 inhibition screen, fluorogenic assay, CYP2B6. Type of series: in vitro ADME. Particulars: probe substrate 7-Ethoxy-4-trifluoromethylcoumarin, average of two independent experiments. The protocol:
(§1) CYP1A2 (BD Bioscience Cat #459500), CYP2B6 (BD Bioscience cat #459220), and CYP3A4 (BD Bioscience Cat #459100) inhibition fluorogenic assays were performed according to the manufacturer's protocol. Test articles were prepared as 10 mM stock solutions in DMSO.
(§2) Data represent the average of two independent experiments. A represents inhibition of 5 to 10%. B represents inhibition of >10% to 20%. C represents inhibition of >20% to 30%. D represents inhibition of >30% to 40%. I represents an IC50 of 5 to 9 μM.

Series [2] deals with HCV genotype 1a H77 strain subgenomic luciferase replicon (H1a-luc) in Huh-7 cells. The series is described as follows: Luciferase replicon assay, genotype 1a (H1a-luc). Type of series: cell-based. To be noted: Hepatitis C virus, Huh-7, 72 h, read-out: EC50 Against Relpicon 1a. The method, then: The HCV luciferase replicon assay measures the ability of a test compound to inhibit HCV replication in cell culture after 3 days of treatment in a human hepatoma cell line (Huh-7) bearing a HCV replicon containing a luciferase-neomycin phosphotransferase fusion gene. The inhibition of HCV replication was measured by quantification of luciferase protein expression. Briefly, Huh-7 cells containing either the HCV genotype 1a H77 strain or genotype 1b Con1 strain subgenomic luciferase replicon (H1a-luc or Zluc, respectively) were grown in DMEM containing glucose, L-glutamine and sodium pyruvate, 10% fetal bovine serum (FBS), 100 IU/mL penicillin, 100 μg/mL streptomycin, 2 mM GlutaMAX, non-essential amino acids and 0.25 (H1a-luc) or 0.5 (Zluc) mg/mL G418. GlutaMAX was obtained from Invitrogen. Corp.; all other media reagents were obtained from Mediatech, Inc. For dose-response testing, the cells were seeded in 96-well plates at 1×10^4 (H1a-luc) or 7.5×10^3 (Zluc) cells/well in a volume of 50 μL, and incubated at 37° C./5% CO2. […] The assay plates were shaken for 3 minutes at room temperature and luciferase activity for each well was measured with a 1 sec read time on the Victor^3V multilabel counter using a 700 nm cut-off filter (Perkin Elmer). EC50 values were calculated from dose response curves from the resulting best-fit equations determined by Microsoft Excel and XLfit 4.1 software.
In general terms: Replicon systems follow genome replication, usually without infectious particles.

Series [3] deals with HCV luciferase-bearing mutant replicon, NS3 A156T, in cured GS4.1 cells. The series is described as follows: Luciferase replicon transient transfection assay, A156T mutant replicon. Type of series: cell-based. The protocol:
The luciferase replicon transient transfection assay measures the ability of a test compound to inhibit the replication of a transiently-transfected HCV luciferase-bearing wild-type or mutant replicon in cured human hepatoma cells (cured GS4.1). The mutant replicons bear a specific single-site mutation in NS3 that is known to confer resistance to protease inhibitors currently in development. The inhibition of HCV replication was measured by quantification of luciferase protein expression. This assay has been validated using a panel of replicons bearing known protease inhibitor resistance mutations and their respective reference compounds. Briefly, subconfluent cured GS4.1 cells in OptiBuffer (ThermoElectron Corp.) were electroporated with 40 μg of wild-type or mutant luciferase-bearing HCV replicon RNA. The cells were then seeded in 96-well opaque white plates at 2.4×10^4 cells/well in 150 μL/well and incubated for 4 hours at 37° C./5% CO2. […] The plates were agitated on a rotating platform at room temperature for 3 minutes and read in a Victor^3V microplate reader (Perkin-Elmer) using a 700 nm cut-off filter with a 1 second read time. EC50 values were calculated from dose response curves from the resulting best-fit equations determined by Microsoft Excel and XLfit 4.1 software.

Series [4] can be described thus: Cytotoxicity evaluation (Cell Titer 96 AQueous One), Table 2. Type of series: cell-based. To be noted: human; cellular viability; cell line not given. The protocol:
For cytotoxicity evaluation, H1a-luc or Zluc cells were treated with compounds as described above and cellular viability was monitored using the Cell Titer 96 AQueous One Solution Cell Proliferation Assay (Promega). Plates were then read at 490 nm in a Victor^3V 1420 multilabel counter (Perkin Elmer) and CC50 concentrations were determined using Microsoft Excel and XLfit 4.1 software.

The target in series [5] is T2, CYP2C8 (Homo sapiens, UniProt P10632).
T2 construct: purchased BD Bioscience
The series is described as follows: In vitro CYP450 inhibition screen, luminogenic assay, CYP2C8. Particulars: probe substrate Luciferin-ME, average of two independent experiments. Type of series: in vitro ADME. The protocol:
(§3) CYP2C8, 2C9, 2C19 and 2D6 (BD Bioscience) inhibition luminogenic assay was performed as per the protocol provided by Promega (P450-Glo™ Assay Technical Bulletin #TB325, P450-Glo™ Screening Systems Technical Bulletin #TB340). Test articles were prepared as 10 mM stock solutions in DMSO.
as §2

Series [6] has as its target T3, CYP2C9 (Homo sapiens, UniProt P11712).
T3 construct: purchased BD Bioscience
The series is described as follows: In vitro CYP450 inhibition screen, luminogenic assay, CYP2C9. Particulars: CYP2C9 enzyme (BD Bioscience), probe substrate Luciferin-H, average of two independent experiments, read-out: IC50 (μM) or % Inhibition at 20 μM, CYP450 2C9. Type of series: in vitro ADME. The protocol: as §3, §2

Series [7] has as its target T4, CYP2D6 (Homo sapiens, UniProt P10635).
T4 construct: purchased BD Bioscience
The series is described as follows: In vitro CYP450 inhibition screen, luminogenic assay, CYP2D6. Particulars: CYP2D6 enzyme (BD Bioscience), probe substrate Luciferin-ME EGE, average of two independent experiments, read-out: IC50 (μM) or % Inhibition at 20 μM, CYP450 2D6. Type of series: in vitro ADME. The protocol:
as §3, §2

The target in series [8] is T5, CYP1A2 (Homo sapiens, UniProt P05177).
T5 construct: purchased BD Bioscience 459500
The series is described as follows: In vitro CYP450 inhibition screen, fluorogenic assay, CYP1A2. Type of series: in vitro ADME. Particulars: probe substrate 3-Cyano-7-Ethoxycoumarin; average of two independent experiments. The protocol:
as §1, §2

Series [9] concerns the target T6, CYP2C19 (Homo sapiens, UniProt P33261).
T6 construct: purchased BD Bioscience
Put plainly: In vitro CYP450 inhibition screen, luminogenic assay, CYP2C19. Type of series: in vitro ADME. To be noted: probe substrate Luciferin-H EGE, average of two independent experiments, read-out: IC50 (μM) or % Inhibition at 20 μM, CYP450 2C19. The protocol:
as §3, §2

T5 sequence (P05177 whole entry): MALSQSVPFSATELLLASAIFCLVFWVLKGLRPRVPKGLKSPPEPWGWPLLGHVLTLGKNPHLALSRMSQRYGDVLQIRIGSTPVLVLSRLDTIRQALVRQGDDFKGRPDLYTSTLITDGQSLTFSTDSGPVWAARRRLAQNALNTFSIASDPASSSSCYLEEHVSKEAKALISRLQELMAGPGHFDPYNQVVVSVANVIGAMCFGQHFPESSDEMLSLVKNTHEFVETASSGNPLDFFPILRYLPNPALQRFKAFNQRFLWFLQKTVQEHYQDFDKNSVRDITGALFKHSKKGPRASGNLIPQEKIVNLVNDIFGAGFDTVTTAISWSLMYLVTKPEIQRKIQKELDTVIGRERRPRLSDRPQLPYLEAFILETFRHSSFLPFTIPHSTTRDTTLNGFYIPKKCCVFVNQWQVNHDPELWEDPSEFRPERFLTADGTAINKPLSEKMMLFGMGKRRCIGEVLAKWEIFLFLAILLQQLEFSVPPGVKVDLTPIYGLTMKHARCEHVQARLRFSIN
T4 sequence (P10635 whole entry): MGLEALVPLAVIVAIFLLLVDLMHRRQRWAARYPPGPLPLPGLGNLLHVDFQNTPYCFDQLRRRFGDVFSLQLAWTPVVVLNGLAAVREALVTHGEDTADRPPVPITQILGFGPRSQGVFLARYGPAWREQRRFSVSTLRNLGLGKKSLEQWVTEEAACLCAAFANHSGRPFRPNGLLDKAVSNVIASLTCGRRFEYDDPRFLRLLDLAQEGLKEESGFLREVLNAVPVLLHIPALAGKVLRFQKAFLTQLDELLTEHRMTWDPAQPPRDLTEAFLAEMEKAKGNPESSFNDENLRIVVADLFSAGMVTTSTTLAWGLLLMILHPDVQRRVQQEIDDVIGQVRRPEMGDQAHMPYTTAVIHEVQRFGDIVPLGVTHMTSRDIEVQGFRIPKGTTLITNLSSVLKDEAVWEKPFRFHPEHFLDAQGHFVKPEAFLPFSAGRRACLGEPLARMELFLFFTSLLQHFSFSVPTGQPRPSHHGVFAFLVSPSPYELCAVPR
T3 sequence (P11712 whole entry): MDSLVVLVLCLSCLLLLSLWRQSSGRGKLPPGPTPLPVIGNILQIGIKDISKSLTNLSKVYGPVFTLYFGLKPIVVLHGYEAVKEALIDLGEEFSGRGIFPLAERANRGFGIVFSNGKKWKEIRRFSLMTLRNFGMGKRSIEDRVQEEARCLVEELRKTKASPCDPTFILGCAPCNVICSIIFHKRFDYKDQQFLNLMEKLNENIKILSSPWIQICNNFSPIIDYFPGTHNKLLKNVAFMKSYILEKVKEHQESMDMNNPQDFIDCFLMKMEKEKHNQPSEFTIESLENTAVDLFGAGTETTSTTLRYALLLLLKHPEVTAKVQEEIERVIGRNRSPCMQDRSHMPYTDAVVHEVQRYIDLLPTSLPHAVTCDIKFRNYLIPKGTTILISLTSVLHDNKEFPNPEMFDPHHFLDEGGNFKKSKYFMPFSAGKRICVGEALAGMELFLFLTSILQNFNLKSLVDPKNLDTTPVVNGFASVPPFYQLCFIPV
T2 sequence (P10632 whole entry): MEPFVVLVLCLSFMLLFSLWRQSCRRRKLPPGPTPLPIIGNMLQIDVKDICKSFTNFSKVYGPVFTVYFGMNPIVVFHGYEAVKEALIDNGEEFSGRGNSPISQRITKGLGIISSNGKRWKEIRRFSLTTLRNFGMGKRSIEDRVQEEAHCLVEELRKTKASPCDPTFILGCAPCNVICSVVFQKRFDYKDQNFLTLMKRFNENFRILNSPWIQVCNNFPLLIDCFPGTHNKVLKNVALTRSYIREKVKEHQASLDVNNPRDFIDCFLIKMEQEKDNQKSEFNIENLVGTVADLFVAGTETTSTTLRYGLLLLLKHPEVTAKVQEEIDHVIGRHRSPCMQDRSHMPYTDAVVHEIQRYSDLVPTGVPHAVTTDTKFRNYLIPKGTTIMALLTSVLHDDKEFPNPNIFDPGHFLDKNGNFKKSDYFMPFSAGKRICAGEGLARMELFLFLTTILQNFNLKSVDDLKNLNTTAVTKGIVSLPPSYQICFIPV
T1 sequence (P20813 whole entry): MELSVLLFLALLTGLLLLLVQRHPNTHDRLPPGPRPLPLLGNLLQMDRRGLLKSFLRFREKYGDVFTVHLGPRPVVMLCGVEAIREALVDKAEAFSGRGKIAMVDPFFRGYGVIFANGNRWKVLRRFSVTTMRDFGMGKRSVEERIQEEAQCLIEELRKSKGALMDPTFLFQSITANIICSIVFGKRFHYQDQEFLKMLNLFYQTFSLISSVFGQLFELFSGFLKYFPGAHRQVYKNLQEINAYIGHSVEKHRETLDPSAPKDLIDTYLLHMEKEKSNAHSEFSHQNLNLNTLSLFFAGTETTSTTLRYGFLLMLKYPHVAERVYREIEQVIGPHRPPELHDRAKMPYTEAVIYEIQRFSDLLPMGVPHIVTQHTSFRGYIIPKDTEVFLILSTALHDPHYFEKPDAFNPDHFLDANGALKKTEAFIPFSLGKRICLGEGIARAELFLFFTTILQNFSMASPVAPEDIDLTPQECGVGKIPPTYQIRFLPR
T6 sequence (P33261 whole entry): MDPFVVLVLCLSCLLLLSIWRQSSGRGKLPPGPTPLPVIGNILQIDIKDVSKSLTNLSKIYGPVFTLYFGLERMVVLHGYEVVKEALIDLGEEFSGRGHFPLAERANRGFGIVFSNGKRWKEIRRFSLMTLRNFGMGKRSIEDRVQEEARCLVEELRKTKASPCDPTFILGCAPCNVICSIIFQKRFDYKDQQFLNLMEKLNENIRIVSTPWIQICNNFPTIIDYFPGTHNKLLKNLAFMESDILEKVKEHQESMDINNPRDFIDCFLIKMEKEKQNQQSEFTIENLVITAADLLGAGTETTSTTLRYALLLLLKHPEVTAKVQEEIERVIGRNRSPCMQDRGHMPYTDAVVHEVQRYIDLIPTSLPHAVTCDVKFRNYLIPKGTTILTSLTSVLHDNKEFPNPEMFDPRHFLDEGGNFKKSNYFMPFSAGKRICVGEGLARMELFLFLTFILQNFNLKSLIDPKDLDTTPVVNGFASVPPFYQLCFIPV

Regarding `COc1ccc2c(O[C@H]3CC[C@H]4C(=O)N(C)CCCC/C=C\[C@@H]5C[C@@]5(C(=O)NS(=O)(=O)C5(C)CC5)NC(=O)[C@@H]4C3)cc(-c3nc(C(F)(F)F)cs3)nc2c1C` [Compound 51], the “IC50 (μM) or % Inhibition at 20 μM, CYP450 2B6” value in series [1] is “No Inhibition”. For the same molecule, the pEC50 (as a rule, −log10 of the EC50, conventionally taken in molar units) in series [2] is more than 6.00; in [3] (Hepatitis C virus, 96 h, read-out: EC50(nm), A156T replicon), 7.40 to 7.60. For the same molecule, the “Fold Change, A156T replicon” value in [3] (EC50 fold change, A156T replicon) is 20-95. Besides, in series [4], the CC50 (usually the concentration that lowers cell viability or growth by half) at 72 h was 10 to 75 µM. In addition, the inhibition (commonly the change of the read-out against control, counted positive when it falls) at 20 µM was in the range of 10 to 20% in series [5] (human, CYP2C8 enzyme (BD Bioscience), read-out: IC50 (μM) or % Inhibition at 20 μM, CYP450 2C8); 20 to 30% in series [6]; 20 to 30% in series [7]. Further, the “IC50 (μM) or % Inhibition at 20 μM, CYP450 1A2” value in series [8] is on record as “No Inhibition”. For the same molecule, the IC50 (as a rule, the concentration at which inhibition is half-maximal) in series [9] fell in the range of 9 to 15 µM.

Take `C#Cc1csc(-c2cc(O[C@H]3CC[C@H]4C(=O)N(C)CCCC/C=C\[C@@H]5C[C@@]5(C(=O)NS(=O)(=O)C5(C)CC5)NC(=O)[C@@H]4C3)c3ccc(OC)c(C)c3n2)n1` [Compound 52, (1aR,3aR,5S,7aR,15aS,Z)-5-(2-(4-ethynylthiazol-2-yl)-7-methoxy-8-methylquinolin-4-yloxy)-9-methyl-N-(1-methylcyclopropylsulfonyl)-3,8-dioxo-1a,2,3,3a,4,5,6,7,7a,8,9,10,11,12,13,15a-hexadecahydro-1H-benzo[c]cyclopropa[g][1,6]diazacyclotetradecine-1a-carboxamide]: the inhibition at 20 µM lay within 30 to 40% in series [1] (human, CYP2B6 enzyme (BD Bioscience cat #459220), probe 7-Ethoxy-4-trifluoromethylcoumarin, read-out: IC50 (μM) or % Inhibition at 20 μM, CYP450 2B6); 20 to 30% in series [6]; 5 to 10% in [7]. For the same molecule, in [2], the pEC50 was more than 6.00. For the same molecule, in series [4], the cytotoxic concentration (CC50) at 72 h was more than 75 µM. Further, the “IC50 (μM) or % Inhibition at 20 μM, CYP450 2C8” value in series [5] is reported as “No Inhibition”. In addition, the “IC50 (μM) or % Inhibition at 20 μM, CYP450 1A2” value in [8] is recorded as “No Inhibition”. In addition, in [9], the IC50 was 9 to 15 µM.
